Data set [1] relates to A549 cells. In words: Cell apoptosis analysis (Annexin V-FITC/PI, FACS). It counts as cell-based, human. As to conditions: for numbers of late apoptotic cells compared with control groups / numbers of necrosis cells compared with control groups: 48 h. As to the method:
The process of controlled cellular death known as apoptosis has an important central role not only in normal homeostatic maintenance of tissues, but also in numerous diseases such as cancer, neurodegenerative, autoimmune, and cardiovascular diseases. After treatment by compound 6a for 48 h, the apoptosis of A549 cells were measured by fluorescence-activated cell sorter (FACS) analysis with annexin V-fluorescein isothiocyanate (FITC) and propidium iodide (PI) labelling.
Figure 4. Effect of compound 6a on cell apoptosis in A549 cells. (A) Representative density plots were obtained by FACS, (B) histograms of percentages of apoptotic cells in each group from (A) analysed by GraphPad Prism5.
Following treatment with different concentrations of compound 6a, the apoptosis of A549 cells was measured using Annexin V-FITC/PI apoptosis detection kit (KeyGEN BioTECH, Nanjing, China), according to the manufacturer’s instructions. Apoptosis of the treated cells was then detected by flow cytometry using ACEA NovoCyte.

In a further data set the test system is A431 cells. The data set is described as follows: MTT antiproliferative assay, A431 cells. It counts as cell-based. As to conditions: Homo sapiens, read-out: IC50 (µM) A431. The procedure: (§1) Methyl thiazolyl tetrazolium (MTT) colorimetric assay (MTT assay)[17]^,[20] was used to evaluated the antiproliferative activities of these novel compounds against four human tumour cell lines including SW480, A549, A431 and NCI-H1975.
(§2) Figure 2. […] (A) SW480 cells, (B) A549 cells, (C) A431 cells, (D) NCI-H1975 cells. […] All error bars were represented in mean ± SE.
(§3) The effect of compounds on cell proliferation was determined using the MTT (3–(4,5-dimethylthiazol-2-yl)-2,5-diphenyltetrazolium bromide) method, which was carried out as previously described[12]^,[16].
(Tetrazolium dyes change colour on reduction, which living cells bring about.)

A further data set concerns SW480 cells. In words: MTT antiproliferative assay, SW480 cells. The settings on record: Homo sapiens, read-out: IC50 (µM) SW480. The class given is cell-based. As to the method:
as §1, §2, §3

In data set [2] the target is wild type epidermal growth factor receptor tyrosine kinase (EGFR^wt-TK) (Homo sapiens, UniProt P00533). In words: In vitro EGFR^wt tyrosine kinase ELISA assay. On the technique in general: An ELISA detects its analyte on a solid surface through an enzyme-linked reagent.
The next data set concerns NCI-H1975 cells. In words: MTT antiproliferative assay, NCI-H1975 cells. It counts as cell-based. The settings on record: Homo sapiens, read-out: IC50 (µM) NCI-H1975. The procedure: as §1, §2, §3
In data set [3] the test system is A549 cells. The data set is described as follows: Cell cycle analysis (PI, flow cytometry). The class given is cell-based, human. The settings on record: 48 h; for percentage of cells in G0/G1 phase: untreated 51.97%. The source says: Figure 5. Effect of compound 6a on the cell cycle phase distribution in A549 cells. (A) Representative profiles were obtained by FACS, (B) histograms of percentages of percentages of cell populations in the G0/G1, S and G2/M phase in each group from (A) analysed by GraphPad Prism5. […] Percentage of cells in G0/G1, S and G2/M phases were indicated. All values were expressed as mean ± SE. *p < .05, **p < .01 and ***p < .001 indicate significant differences compared with the control at the same phase.
Following treatment with different concentrations of compound 6a, the distribution of cell cycle was measured using cell cycle detection kit (KeyGEN BioTECH, Nanjing, China), according to the manufacturer’s instructions. The cell cycle of the treated cells was then detected by flow cytometry using ACEA NovoCyte.
A general note: A flow cytometer gives signals particle by particle.

The test system of data set [4] is A549 cells. The data set is described as follows: MTT antiproliferative assay, A549 cells. It counts as cell-based. The settings on record: Homo sapiens, read-out: IC50 (µM) A549. As to the method: as §1, §2, §3
Setting [5] is: A-431, MTT, 72 h of treatment, mean ± SD of at least three independent experiments.
The mark [6] stands for this setting: SW480, MTT, 72 h of treatment, mean ± SD of at least three independent experiments.
Setting [7] is: NCI-H1975, MTT, 72 h of treatment, mean ± SD of at least three independent experiments.
Setting [8] is: A549, MTT, 72 h of treatment, mean ± SD of at least three independent experiments.

SMILES strings stand for the structures. Like-named read-outs stand apart in the source and are kept apart here.

Chain of wild type epidermal growth factor receptor tyrosine kinase (EGFR^wt-TK) (P00533 25-1210): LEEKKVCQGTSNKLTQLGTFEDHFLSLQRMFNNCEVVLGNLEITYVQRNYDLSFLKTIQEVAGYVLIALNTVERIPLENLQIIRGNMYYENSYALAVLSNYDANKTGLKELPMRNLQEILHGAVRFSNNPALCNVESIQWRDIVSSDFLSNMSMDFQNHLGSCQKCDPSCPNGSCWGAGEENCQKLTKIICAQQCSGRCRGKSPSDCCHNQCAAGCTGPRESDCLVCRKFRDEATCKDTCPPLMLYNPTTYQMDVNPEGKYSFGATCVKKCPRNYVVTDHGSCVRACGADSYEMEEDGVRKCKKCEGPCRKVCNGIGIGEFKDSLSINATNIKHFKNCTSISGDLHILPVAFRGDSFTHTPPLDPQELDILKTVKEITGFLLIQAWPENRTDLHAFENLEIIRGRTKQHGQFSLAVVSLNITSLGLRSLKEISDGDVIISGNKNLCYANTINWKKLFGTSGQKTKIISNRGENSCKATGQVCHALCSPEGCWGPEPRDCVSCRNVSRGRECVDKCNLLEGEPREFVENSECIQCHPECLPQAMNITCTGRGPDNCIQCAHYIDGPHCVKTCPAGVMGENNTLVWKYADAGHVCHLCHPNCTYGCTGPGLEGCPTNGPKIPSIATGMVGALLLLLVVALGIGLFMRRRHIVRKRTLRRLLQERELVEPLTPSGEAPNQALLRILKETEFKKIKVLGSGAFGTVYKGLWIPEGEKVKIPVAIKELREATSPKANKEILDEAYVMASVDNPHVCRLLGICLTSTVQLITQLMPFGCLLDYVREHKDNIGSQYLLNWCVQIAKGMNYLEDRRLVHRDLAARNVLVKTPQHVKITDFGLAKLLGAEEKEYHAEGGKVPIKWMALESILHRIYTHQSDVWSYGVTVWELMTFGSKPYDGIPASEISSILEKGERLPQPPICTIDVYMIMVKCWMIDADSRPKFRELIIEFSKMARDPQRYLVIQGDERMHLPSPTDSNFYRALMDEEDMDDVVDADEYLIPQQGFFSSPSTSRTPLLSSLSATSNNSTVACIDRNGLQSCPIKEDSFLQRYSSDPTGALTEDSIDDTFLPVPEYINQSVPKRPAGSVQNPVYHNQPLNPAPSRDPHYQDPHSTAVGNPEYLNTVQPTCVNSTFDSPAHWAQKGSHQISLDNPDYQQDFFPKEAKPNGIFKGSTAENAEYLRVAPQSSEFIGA

What is called IC50 is the midpoint of a concentration-inhibition curve. As for `CCN(CC)CCNCc1ccc(-c2ccc3ncnc(Nc4ccc(OCc5cccc(F)c5)c(Cl)c4)c3c2)o1` [Compound 6a, 4–(3-chloro-4-(3-fluorobenzyloxy)phenylamino)-6–(5-((N,N-diethyl(aminoethyl))aminomethyl)furan-2-yl)quinazoline], the “numbers of late apoptotic cells compared with control groups” value with A549 cells [1] (A549, 10 µM) was “significantly higher”; in the data set on A549 cells [1] (A549, 20 µM), “significantly higher”. In the data set on A549 cells [1] (A549, 20 µM), the “numbers of necrosis cells compared with control groups” value is reported as “significantly higher”. Besides, the “early apoptosis of A549 cells” value with A549 cells [1] (A549, 48 h, tested concentrations 20-2.5 µM, versus control) is recorded as “not significantly influenced”. For the same compound, the IC50 came out at 2.21 ± 0.25 µM in the data set with A431 cells (setting [5]); 6.67 ± 0.95 µM in the data set with SW480 cells (setting [6]); 0.0156 µM in data set [2]; 9.79 ± 0.07 µM in the data set on NCI-H1975 cells (setting [7]); 5.46 ± 0.19 µM in the data set on A549 cells [4] (setting [8]). Moreover, the “percentage of cells in G0/G1 phase” value is given as 54.15% in the data set on A549 cells [3] (A549, 2.5 µM, PI); 55.44% in the data set with A549 cells [3] (A549, 5 µM, PI); 51.77% in the data set with A549 cells [3] (A549, 10 µM, PI); 62.45% with A549 cells [3] (A549, 20 µM, PI). For the same compound, the “effect on cell cycle of A549 cells” value in the data set with A549 cells [3] (A549, 20, 10, 5 and 2.5 µM) is given as “arrested in the G0/G1 phase”.
As usually defined, the melting point is the temperature of the solid-liquid transition. On to `CCN(CC)CCNCc1ccc(-c2ccc3ncnc(Nc4ccc(F)c(Cl)c4)c3c2)o1` [Compound 6b, 4–(3-chloro-4-fluorophenylamino)-6-(5-((N,N-diethyl(aminoethyl))aminomethyl)furan-2-yl)quinazoline], for which the melting point lay in the range of 98.3 to 99.8 °C. Further, in the data set on A431 cells (setting [5]), the IC50 is 3.92 ± 1.1 µM. In the data set with SW480 cells (setting [6]), the IC50 was determined as 14.9 ± 2.43 µM. Also, in the data set with NCI-H1975 cells (setting [7]), the IC50 came out at 17.55 ± 0.03 µM. Further, in the data set with A549 cells [4] (setting [8]), the half-inhibitory concentration (IC50) was found to be 18 ± 0.62 µM.
As to `C/C=C/c1ccc(Nc2ncnc3ccc(-c4ccc(CNCCN(CC)CC)o4)cc23)cc1` [Compound 6d, 6-(5-((N,N-diethylethyl)aminomethyl)furan-2-yl)-4–(4-(E)-(propen-1-yl)phenylamino)quinazoline], the melting point was in the range of 89.9 to 91.3 °C. The IC50 in the data set with A431 cells (setting [5]) was 2.09 ± 1.01 µM. In addition, in the data set with SW480 cells (setting [6]), the IC50 turned out to be 4.21 ± 1.16 µM. For the same compound, in the data set with NCI-H1975 cells (setting [7]), the IC50 was 5.13 ± 0.55 µM. The IC50 in the data set on A549 cells [4] (setting [8]) came to 4.1 ± 0.66 µM.
As for `C#Cc1cccc(Nc2ncnc3ccc(-c4ccc(CNCCN(CC)CC)o4)cc23)c1` [Compound 6c, 4–(3-ethynylphenylamino)-6-(5-((N,N-diethyl(aminoethyl))aminomethyl)furan-2-yl)quinazoline], the melting point was in the range of 81.4 to 82.3 °C. Further, the IC50 with A431 cells (setting [5]) came to 2.59 ± 0.15 µM. Besides, the IC50 with SW480 cells (setting [6]) amounted to 10.8 ± 1.34 µM. Further, the IC50 with NCI-H1975 cells (setting [7]) came out at 15.6 ± 1.41 µM. Moreover, the IC50 with A549 cells [4] (setting [8]) came to 12.1 ± 0.37 µM.
For `CS(=O)(=O)CCNCc1ccc(-c2ccc3ncnc(Nc4ccc(OCc5cccc(F)c5)c(Cl)c4)c3c2)o1` [Lapatinib, reference compound], the “numbers of late apoptotic cells compared with control groups” value in the data set with A549 cells [1] (A549, 20 µM) was “significantly higher”. Moreover, in the data set with A549 cells [1] (A549, 20 µM), the “numbers of necrosis cells compared with control groups” value is listed as “significantly higher”. In addition, the 50% inhibitory concentration (IC50) amounted to 4.8 ± 0.71 µM with A431 cells (A-431, 72 h); 12.6 ± 1.35 µM in the data set with SW480 cells (SW480, 72 h); 12.7 ± 0.73 µM in the data set with NCI-H1975 cells (NCI-H1975, 72 h); 14.9 ± 1.21 µM in the data set on A549 cells [4] (A549, 72 h). In addition, in the data set on A549 cells [3] (A549, 20 µM, PI), the “percentage of cells in G2/M phase” value is 19.41%. In the data set on A549 cells [3] (A549, 20 µM, PI), the “percentage of cells in S phase” value amounted to 19.93%.

Source of the values: article PMC6758725, “Novel 4-arylaminoquinazolines bearing N,N-diethyl(aminoethyl)amino moiety with antitumour activity as EGFR^wt-TK inhibitor” (Journal of Enzyme Inhibition and Medicinal Chemistry, 2019).
